{"source": "patent US20240384268A1", "about": "“Oligonucleotides” (Hudson Institute of Medical Research, priority 2021, published 2024)", "note": "In the oligonucleotide strings, read from the 5' end, every base follows the letter of its sugar. An asterisk marks phosphorothioate; unmarked linkages are phosphodiester. Other units and linkages are bracketed, terminal groups are in braces. A string of capitals states the bases alone. d = 2'-deoxy (DNA); m = 2'-O-methyl"}
{"biological_target": "T1, TLR8 (Homo sapiens, UniProt Q9NR97)", "T1 sequence (Q9NR97 27-1041)": "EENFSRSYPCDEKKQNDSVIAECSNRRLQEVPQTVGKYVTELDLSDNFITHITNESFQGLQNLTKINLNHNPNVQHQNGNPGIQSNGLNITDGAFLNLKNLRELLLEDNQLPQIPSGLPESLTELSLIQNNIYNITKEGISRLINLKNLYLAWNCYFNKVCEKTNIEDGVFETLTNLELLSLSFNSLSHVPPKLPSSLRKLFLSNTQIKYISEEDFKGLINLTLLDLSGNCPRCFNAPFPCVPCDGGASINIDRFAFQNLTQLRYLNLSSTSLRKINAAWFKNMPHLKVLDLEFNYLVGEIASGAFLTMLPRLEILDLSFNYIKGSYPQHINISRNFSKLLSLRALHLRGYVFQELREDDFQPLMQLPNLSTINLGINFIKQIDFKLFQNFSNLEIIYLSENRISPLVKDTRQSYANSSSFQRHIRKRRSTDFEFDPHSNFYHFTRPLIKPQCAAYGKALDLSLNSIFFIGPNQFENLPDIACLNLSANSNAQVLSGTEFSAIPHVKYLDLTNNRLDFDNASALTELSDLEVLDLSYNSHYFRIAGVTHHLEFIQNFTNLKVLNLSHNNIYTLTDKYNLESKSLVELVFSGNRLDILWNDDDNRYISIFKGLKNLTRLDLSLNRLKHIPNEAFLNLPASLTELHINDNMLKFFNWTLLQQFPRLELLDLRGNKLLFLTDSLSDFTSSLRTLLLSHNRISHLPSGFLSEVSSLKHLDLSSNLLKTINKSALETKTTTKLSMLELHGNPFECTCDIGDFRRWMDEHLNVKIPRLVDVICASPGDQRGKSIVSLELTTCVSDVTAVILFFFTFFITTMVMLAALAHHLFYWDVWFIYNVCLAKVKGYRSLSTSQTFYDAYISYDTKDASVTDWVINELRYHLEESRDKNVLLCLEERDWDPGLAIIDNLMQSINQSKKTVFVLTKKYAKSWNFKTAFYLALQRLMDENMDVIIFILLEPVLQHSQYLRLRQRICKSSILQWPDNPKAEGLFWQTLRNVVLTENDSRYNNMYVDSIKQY", "experiment": "HEK-TLR8 NF-κB-luciferase reporter, R848 or Motolimod stimulation (potentiation or inhibition)", "type": "cell-based", "design": "expressed in transfected cells; host or cells: 293XLhTLR8 (HEK293)", "details": "HEK-TLR8; 500 nM ASO; fold increase relative to R848 without ASO (Alharbi et al., 2020)", "units": {"TLR8-500 nM: averaged NF-κB-Luciferase relative to R848": "fold"}}
{"substance": "mC*mA*mC*mC*mC*T*T*C*T*C*T*C*T*G*G*mU*mC*mC*mC*mA (CACCCTTCTCTCTGGUCCCA; antisense; sugars from the 5' end m5 d10 m5, all phosphorothioate, methylation of C not given here) [[LINC-PINT]116]", "TLR8-500 nM: averaged NF-κB-Luciferase relative to R848": 5.97}
{"substance": "mC*mA*mC*mU*mG*T*A*T*T*T*T*A*T*T*A*mC*mA*mG*mA*mA (mC*mA*mC*mU*mG*dT*dA*dT*dT*dT*dT*dA*dT*dT*dA*mC*mA*mG*mA*mA; antisense) [[LINC-PINT]2990]", "TLR8-500 nM: averaged NF-κB-Luciferase relative to R848": 4.86}
{"substance": "mC*mA*mG*mG*mC*C*T*C*C*A*G*T*G*T*C*mU*mU*mC*mU*mC (mC*mA*mG*mG*mC*dC*dT*dC*dC*dA*dG*dT*dG*dT*dC*mU*mU*mC*mU*mC; antisense) [[CDKN2B-AS1]2219]", "TLR8-500 nM: averaged NF-κB-Luciferase relative to R848": 3.89}
{"substance": "mC*mA*mU*mC*mC*C*T*T*C*T*G*C*T*G*C*mC*mA*mA*mG*mC (mC*mA*mU*mC*mC*dC*dT*dT*dC*dT*dG*dC*dT*dG*dC*mC*mA*mA*mG*mC; antisense) [[LINC-PINT]98]", "TLR8-500 nM: averaged NF-κB-Luciferase relative to R848": 8.23}
{"substance": "mC*mC*mA*mU*mC*C*C*T*T*C*T*G*C*T*G*mC*mC*mA*mA*mG (mC*mC*mA*mU*mC*dC*dC*dT*dT*dC*dT*dG*dC*dT*dG*mC*mC*mA*mA*mG; antisense) [ILING-PINT199]", "TLR8-500 nM: averaged NF-κB-Luciferase relative to R848": 5.67}
{"substance": "mC*mC*mA*mU*mG*T*C*C*C*A*G*G*C*C*T*mC*mC*mA*mG*mU (CCAUGTCCCAGGCCTCCAGU; sugars from the 5' end m5 d10 m5, all phosphorothioate, methylation of C not given here) [[CDKN2B-AS1]2227]", "TLR8-500 nM: averaged NF-κB-Luciferase relative to R848": 1.46}
{"substance": "mC*mC*mC*mU*mA*A*T*G*C*T*T*T*C*C*T*mC*mU*mC*mC*mA (mC*mC*mC*mU*mA*dA*dT*dG*dC*dT*dT*dT*dC*dC*dT*mC*mU*mC*mC*mA; antisense) [[LINC-PINT1877 KL]", "TLR8-500 nM: averaged NF-κB-Luciferase relative to R848": 8.39}
{"substance": "mC*mC*mC*mU*mU*C*T*C*T*C*T*G*G*T*C*mC*mC*mA*mU*mC (mC*mC*mC*mU*mU*dC*dT*dC*dT*dC*dT*dG*dG*dT*dC*mC*mC*mA*mU*mC; antisense) [[LINC-PINT]114]", "TLR8-500 nM: averaged NF-κB-Luciferase relative to R848": 8.12}
{"substance": "mC*mC*mU*mA*mG*A*A*A*G*A*A*G*C*A*A*mA*mG*mA*mU*mU (mC*mC*mU*mA*mG*dA*dA*dA*dG*dA*dA*dG*dC*dA*dA*mA*mG*mA*mU*mU) [[CDKN2B-AS1]1522]", "TLR8-500 nM: averaged NF-κB-Luciferase relative to R848": 4.94}
{"substance": "mC*mC*mU*mU*mC*T*C*T*C*T*G*GT*C*C*mC*mA*mU*mC*mC (CCUUCTCTCTGGTCCCAUCC; antisense; chemistry not fully specified) [[LINC-PINT]113]", "TLR8-500 nM: averaged NF-κB-Luciferase relative to R848": 3.51}
{"substance": "mC*mC*mU*mU*mC*T*G*C*T*G*C*C*A*A*G*mC*mC*mC*mC*mA (mC*mC*mU*mU*mC*dT*dG*dC*dT*dG*dC*dC*dA*dA*dG*mC*mC*mC*mC*mA; antisense) [[LINC-PINT]94]", "TLR8-500 nM: averaged NF-κB-Luciferase relative to R848": 3.71}
{"substance": "mC*mU*mC*mU*mC*T*G*G*T*C*C*C*A*T*C*mC*mC*mU*mU*mC (mC*mU*mC*mU*mC*dT*dG*dG*dT*dC*dC*dC*dA*dT*dC*mC*mC*mU*mU*mC; antisense) [[LINC-PINT]109]", "TLR8-500 nM: averaged NF-κB-Luciferase relative to R848": 10.10}
{"substance": "mC*mU*mU*mC*mU*C*T*C*T*G*G*T*C*C*C*mA*mU*mC*mC*mC (mC*mU*mU*mC*mU*dC*dT*dC*dT*dG*dG*dT*dC*dC*dC*mA*mU*mC*mC*mC) [[LINC-PINT]112]", "TLR8-500 nM: averaged NF-κB-Luciferase relative to R848": 9.21}
{"substance": "mC*mU*mU*mU*mA*T*A*T*T*A*C*A*A*A*G*mC*mU*mA*mC*mU (mC*mU*mU*mU*mA*dT*dA*dT*dT*dA*dC*dA*dA*dA*dG*mC*mU*mA*mC*mU; antisense) [[LINC-PINT]2755]", "TLR8-500 nM: averaged NF-κB-Luciferase relative to R848": 6.37}
